Source: patent US4803217A, “Hapalindolinone compounds as vassopressin antagonists” (Merck & Co., Inc., priority 1986, dated 1989)

Legend:
[1] = molecular target: T1, V2 (antidiuretic) vasopressin receptor, kidney medulla crude membrane preparation (Rattus norvegicus, UniProt Q00788); experiment: [3H]Arginine Vasopressin Binding Assay, kidney medulla (V2); conditions: kidney medulla membranes; mean with standard error, n = 3; read-out: IC50 Values, 3H-Arg8-Vasopressin Binding, Kidney (V2)
T1 construct: crude membrane preparation of rat liver (V1 receptor) or kidney medulla (V2 receptor); from tissue; host or cells: kidney medulla, crude membrane preparation
T1 sequence (Q00788 whole entry): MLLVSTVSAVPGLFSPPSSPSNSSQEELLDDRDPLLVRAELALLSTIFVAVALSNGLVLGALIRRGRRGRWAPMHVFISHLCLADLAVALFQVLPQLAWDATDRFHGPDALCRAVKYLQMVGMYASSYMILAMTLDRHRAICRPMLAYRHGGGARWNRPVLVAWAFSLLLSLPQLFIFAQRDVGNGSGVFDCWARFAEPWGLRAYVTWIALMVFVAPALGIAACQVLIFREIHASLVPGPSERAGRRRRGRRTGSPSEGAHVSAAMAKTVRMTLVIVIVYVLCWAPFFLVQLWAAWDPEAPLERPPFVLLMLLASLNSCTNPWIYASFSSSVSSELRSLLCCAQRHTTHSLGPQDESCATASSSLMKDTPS
From the text: (§1) The table summarizes the in vitro potency of the compound to compete for ^3 H-vasopressin binding at two proposed vasopressin receptor subtypes (V1, V2), as well as to inhibit vasopressin-stimulated adenylate cyclase-activity, a further measure of vasopressin antagonism.
(§2) The [^3 H]Arginine Vasopressin Binding Assay is an in vitro procedure which was adapted from the method of Guillon et al., Eur. J. Pharmacol. 85: 219-304 (1982). It measures the relative affinity of the compound for vasopressin receptor(s) labelled by [^3 H]vasopressin. Vasopressin receptors have been divided into two subtypes pharmacollogically: the V1 (pressor)-receptor found in liver and vascular smooth muscle and the V2 (antidiuretic) receptor found in kidney medulla. The binding assay uses a crude membrane preparation of rat liver (V1 receptor) or kidney medulla (V2 receptor) which is incubated with [^3 H]vaspopressin in the presence or absence of the test compound. The IC50 values (concentrations to inhibit [^3 H]vasopressin binding by 50%) for the compound (see Table VI) are measures of their potencies and are inversely related to their affinities.

[2] = molecular target: vasopressin-stimulated adenylate cyclase, Kidney (V2); experiment: Inhibition of vasopressin-stimulated adenylate cyclase in kidney medulla (V2 antagonism); type: biochemical; conditions: conversion of ATP to cAMP, mean, n = 2, read-out: IC50 Values, AVP-stimulated Ad. Cyclase, Kidney (V2)
From the text: as §1
Vasopressin exerts its antidiuretic effects on the kidney through the stimulation of adenylate cyclase activity. Vasopressin-stimulated adenylate cyclase in kidney medulla, therefore, is used as a functional assay to determine the potencies of the test compound as V2 -vasopressin antagonists. In this assay, the IC50 value obtained for the compound IA (see Table IV) is a measure of its potency to inhibit the vasopressin-stimulated conversion of ATP to CAMP by adenylate cyclase. This method was adapted from Seamon et al., PNAS 78: 3363-3367 (1981).

[3] = molecular target: T2, V1 (pressor) vasopressin receptor, rat liver crude membrane preparation (Rattus norvegicus, UniProt P30560); experiment: [3H]Arginine Vasopressin Binding Assay, liver (V1); conditions: rat liver membranes; mean, n = 3; read-out: IC50 Values, 3H-Arg8-Vasopressin Binding, Liver (V1)
T2 construct: crude membrane preparation of rat liver (V1 receptor); from tissue; host or cells: rat liver, crude membrane preparation
T2 sequence (P30560 whole entry): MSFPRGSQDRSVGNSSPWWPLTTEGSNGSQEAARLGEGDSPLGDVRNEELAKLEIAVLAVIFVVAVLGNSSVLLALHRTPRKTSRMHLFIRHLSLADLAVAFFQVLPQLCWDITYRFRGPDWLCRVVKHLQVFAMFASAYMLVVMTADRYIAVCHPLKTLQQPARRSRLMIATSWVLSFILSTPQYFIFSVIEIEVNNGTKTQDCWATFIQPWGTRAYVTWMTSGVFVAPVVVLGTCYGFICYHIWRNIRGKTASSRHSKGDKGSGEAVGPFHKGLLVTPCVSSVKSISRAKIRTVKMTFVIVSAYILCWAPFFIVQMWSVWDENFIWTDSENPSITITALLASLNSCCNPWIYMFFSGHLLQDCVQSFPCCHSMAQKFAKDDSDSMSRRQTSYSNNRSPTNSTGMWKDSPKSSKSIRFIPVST
From the text: as §1, §2

SMILES: [C-]#[N+]C12C(C(C(=C)C)CC(Cl)C1(C)C=C)C21C(=O)Nc2ccccc21 (stereo not drawn) [Formula IA, Hapalindolinone A]
- IC50 [1]: 37.5 ± 7.6 µM
- IC50 [2]: 44.6 µM
- IC50 [3]: > 100 µM
